Source: patent US7575882B2, “Compositions and methods for identifying modulators of TRPV2” (Janssen Pharmaceutica N. V., priority 2005, dated 2009)

Molecular target: T1, rat TRPV2 (Rattus norvegicus, UniProt Q9WUD2, A713V/L151P/T158I)
T1 construct: A cDNA fragment encoding the full-length rat TRPV2 was subcloned into pCI-neo; expressed in transfected cells
T1 sequence (Q9WUD2 1-761 L151P/T158I/A713V): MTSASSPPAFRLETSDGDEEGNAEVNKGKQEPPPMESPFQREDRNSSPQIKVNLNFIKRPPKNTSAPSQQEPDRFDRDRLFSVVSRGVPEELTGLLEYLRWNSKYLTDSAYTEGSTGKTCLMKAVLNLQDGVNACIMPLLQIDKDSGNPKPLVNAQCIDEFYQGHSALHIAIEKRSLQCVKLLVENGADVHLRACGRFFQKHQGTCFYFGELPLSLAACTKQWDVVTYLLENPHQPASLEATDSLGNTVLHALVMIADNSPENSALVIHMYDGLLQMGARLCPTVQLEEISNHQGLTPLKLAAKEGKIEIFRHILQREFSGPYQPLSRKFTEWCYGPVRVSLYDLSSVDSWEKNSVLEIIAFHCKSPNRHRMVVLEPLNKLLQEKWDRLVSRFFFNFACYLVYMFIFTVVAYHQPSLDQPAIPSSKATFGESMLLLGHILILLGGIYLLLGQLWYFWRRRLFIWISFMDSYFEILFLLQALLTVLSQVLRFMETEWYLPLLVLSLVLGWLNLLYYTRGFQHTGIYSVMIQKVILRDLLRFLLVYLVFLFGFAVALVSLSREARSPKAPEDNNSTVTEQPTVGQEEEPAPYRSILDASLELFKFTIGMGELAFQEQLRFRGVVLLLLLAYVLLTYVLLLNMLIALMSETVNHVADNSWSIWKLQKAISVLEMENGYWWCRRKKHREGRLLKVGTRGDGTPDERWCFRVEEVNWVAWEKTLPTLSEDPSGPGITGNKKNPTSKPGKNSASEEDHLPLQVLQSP
Assay: Whole-cell patch clamp, HEK293 cells stably expressing rat TRPV2
Format: cell-based
Conditions: 100 μM
Procedure: To further confirm the Δ^9-THC effect on TRPV2, whole-cell patch clamp studies were performed. The extracellular solution contained (in mM): NaCl, 132; CaCl, 1.8; KCl, 5.4; MgCl2, 0.8; HEPES, 10; glucose, 10; pH=7.4. The intracellular solution used to fill recording pipettes contained (in mM): CsCl, 145; EGTA, 5; HEPES, 10; glucose, 5; pH=7.4. Recordings were performed using the conventional whole-cell patch clamp technique, 2-3 days after transient transfection of human TRPV2 into HEK293 cell or 1-2 days after plating HEK293 cells stably expressing rat TRPV2 onto glass coverslips. Currents were amplified by a patch clamp amplifier and filtered at 2 kHz (Axopatch 200B), sampled at 10 kHz using Digidata 1322A and acquired and analyzed with pClamp 9.0 (all instruments from Molecular Devices, CA). A 600 ms voltage ramp was given once every five seconds from −100 mV to +60 mV. The holding potential between voltage ramps was −100 mV. Extracellular solutions were applied to the cell at 0.5 ml/min via a gravity-fed perfusion system. All experiments were performed at 22° C.

For Delta-9-tetrahydrocannabinol [Δ^9-THC], the “whole-cell current amplitude in HEK293 cells expressing rTRPV2 compared to control” value (22° C., hyperpolarized and depolarized potentials) was “significant increase of the whole-cell current amplitude” and the “reversal potential of the activated current” value (whole-cell patch clamp) was ~0 mV.
